Laboratory results: patent US20210041443A1, “WNT6 AS GLIOBLASTOMA ONCOGENIC BIOMARKER, AND USES OF INHIBITORS THEREOF” (UNIVERSIDADE DO MINHO, priority 2018, published 2021)

Assays:
Test in all cases: Cell viability of GBM cells exposed to WNT974
[1] = system: U373 cells (WNT6-positive GBM); type: cell-based, human
Procedure: (§1) FIG. 13. WNT6-positive GBM cell lines are more sensitive to WNT974 (an inhibitor of the WNT pathway) than a WNT6-negative GBM cell line. A. GBM cells positive to WNT6 (U373, […], and GL42) and negative to WNT6 (U87) were exposed to increasing doses of WNT974 (0, 10, 20, or 30 μM). The viability of U87 cells (WNT6-negative) was not affected by WNT inhibition, in contrast to WNT6-positive GBM cells (U373, SNB19, and GL42) that are highly-sensitive. B. Cells were exposed to increasing doses of WNT974 (0, 10, 20, or 30 μM) and to a fixed dose of TMZ (temozolomide, the gold standard chemotherapeutic drug used for GBM patients; U373: 400 μM; SNB19: 800 μM; GL42: 200 μM; U87: 800 μM).

[2] = system: SNB19 cells (WNT6-positive GBM); type: cell-based, human
Procedure: as §1

[3] = system: U87 cells (WNT6-negative GBM); type: cell-based, human
Procedure: as §1

[4] = system: GL42 cells (WNT6-positive GBM); type: cell-based
Procedure: as §1

## Cc1cc(-c2ncc(CC(=O)Nc3ccc(-c4cnccn4)cn3)cc2C)ccn1 [WNT974]
[1]; U373 (WNT6-positive), WNT974 0, 10, 20, or 30 μM
  cell viability, sensitivity to WNT inhibition: highly-sensitive
[1]; U373, WNT974 0, 10, 20, or 30 μM plus fixed dose TMZ 400 μM
  cell viability, sensitivity to combinatorial therapy: higher sensitivity
[2]; SNB19 (WNT6-positive), WNT974 0, 10, 20, or 30 μM
  cell viability, sensitivity to WNT inhibition: highly-sensitive
[2]; SNB19, WNT974 0, 10, 20, or 30 μM plus fixed dose TMZ 800 μM
  cell viability, sensitivity to combinatorial therapy: higher sensitivity
[3]; U87 (WNT6-negative), WNT974 0, 10, 20, or 30 μM
  cell viability, sensitivity to WNT inhibition: not affected
[3]; U87, WNT974 0, 10, 20, or 30 μM plus fixed dose TMZ 800 μM
  cell viability, sensitivity to combinatorial therapy: no effect
[4]; GL42 (WNT6-positive), WNT974 0, 10, 20, or 30 μM
  cell viability, sensitivity to WNT inhibition: highly-sensitive
[4]; GL42, WNT974 0, 10, 20, or 30 μM plus fixed dose TMZ 200 μM
  cell viability, sensitivity to combinatorial therapy: higher sensitivity
